Assay results taken from paper PMC4394048 (Molecular cancer therapeutics, 2015).

Experiments:
OATP1B3 [1] = biological target: T1, OATP1B3 (Homo sapiens, UniProt Q9NPD5)
MDR1 = MDR1 (Homo sapiens, UniProt P08183); conditions: MDCKII-MDR1 versus MDCKII-Co cells over time; 0.1 μM; p < 0.05
OATP1B1/MDR1 = conditions: MDCKII-OATP1B1/MDR1 versus MDCKII-OATP1B1 cells, p < 0.001
OATP1B3/MDR1 = conditions: MDCKII-OATP1B3/MDR1 versus MDCKII-OATP1B3 cells, p < 0.01
[2] = cited from earlier work
[3] = Mdr1a/1b−/− mice, intravenous administration; cited from earlier work
OATP1B3 [4] = biological target: T1, OATP1B3; assay: in vitro
[5] = Docetaxel distribution in Slco1b2−/− and wild-type mice; conditions: for mean plasma clearance ± S.D.: dose/AUC
[6] = substrate: CC(=O)O[C@@]12CO[C@@H]1C[C@H](O)[C@@]1(C)C(=O)[C@H](O)C3=C(C)[C@@H](OC(=O)[C@H](O)[C@@H](NC(=O)OC(C)(C)C)c4ccccc4)C[C@@](O)([C@@H](OC(=O)c4ccccc4)[C@H]21)C3(C)C; assay: cells, lysate or membranes named; conditions: other: HeLa cells; 0.1-100 μM; Michaelis-Menten fit; 37.0 °C

T1 sequence (Q9NPD5 whole entry): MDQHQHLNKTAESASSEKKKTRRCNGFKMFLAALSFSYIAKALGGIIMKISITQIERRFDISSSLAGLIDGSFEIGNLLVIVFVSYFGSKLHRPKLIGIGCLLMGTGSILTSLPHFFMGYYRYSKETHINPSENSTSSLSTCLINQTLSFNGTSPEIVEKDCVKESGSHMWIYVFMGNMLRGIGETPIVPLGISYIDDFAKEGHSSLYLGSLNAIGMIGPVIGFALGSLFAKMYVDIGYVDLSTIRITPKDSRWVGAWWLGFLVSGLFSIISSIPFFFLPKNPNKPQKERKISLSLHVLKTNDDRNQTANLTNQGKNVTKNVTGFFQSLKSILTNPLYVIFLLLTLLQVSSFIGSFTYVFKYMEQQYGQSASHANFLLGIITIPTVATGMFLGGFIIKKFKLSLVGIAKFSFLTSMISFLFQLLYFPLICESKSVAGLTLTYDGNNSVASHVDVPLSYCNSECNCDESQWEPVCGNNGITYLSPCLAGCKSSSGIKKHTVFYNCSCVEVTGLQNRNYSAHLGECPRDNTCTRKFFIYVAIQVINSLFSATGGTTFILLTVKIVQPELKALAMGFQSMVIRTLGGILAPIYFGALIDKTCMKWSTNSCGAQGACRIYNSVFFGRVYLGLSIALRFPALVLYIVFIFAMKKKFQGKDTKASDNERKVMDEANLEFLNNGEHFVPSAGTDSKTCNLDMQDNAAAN
Chain of MDR1 (P08183 whole entry): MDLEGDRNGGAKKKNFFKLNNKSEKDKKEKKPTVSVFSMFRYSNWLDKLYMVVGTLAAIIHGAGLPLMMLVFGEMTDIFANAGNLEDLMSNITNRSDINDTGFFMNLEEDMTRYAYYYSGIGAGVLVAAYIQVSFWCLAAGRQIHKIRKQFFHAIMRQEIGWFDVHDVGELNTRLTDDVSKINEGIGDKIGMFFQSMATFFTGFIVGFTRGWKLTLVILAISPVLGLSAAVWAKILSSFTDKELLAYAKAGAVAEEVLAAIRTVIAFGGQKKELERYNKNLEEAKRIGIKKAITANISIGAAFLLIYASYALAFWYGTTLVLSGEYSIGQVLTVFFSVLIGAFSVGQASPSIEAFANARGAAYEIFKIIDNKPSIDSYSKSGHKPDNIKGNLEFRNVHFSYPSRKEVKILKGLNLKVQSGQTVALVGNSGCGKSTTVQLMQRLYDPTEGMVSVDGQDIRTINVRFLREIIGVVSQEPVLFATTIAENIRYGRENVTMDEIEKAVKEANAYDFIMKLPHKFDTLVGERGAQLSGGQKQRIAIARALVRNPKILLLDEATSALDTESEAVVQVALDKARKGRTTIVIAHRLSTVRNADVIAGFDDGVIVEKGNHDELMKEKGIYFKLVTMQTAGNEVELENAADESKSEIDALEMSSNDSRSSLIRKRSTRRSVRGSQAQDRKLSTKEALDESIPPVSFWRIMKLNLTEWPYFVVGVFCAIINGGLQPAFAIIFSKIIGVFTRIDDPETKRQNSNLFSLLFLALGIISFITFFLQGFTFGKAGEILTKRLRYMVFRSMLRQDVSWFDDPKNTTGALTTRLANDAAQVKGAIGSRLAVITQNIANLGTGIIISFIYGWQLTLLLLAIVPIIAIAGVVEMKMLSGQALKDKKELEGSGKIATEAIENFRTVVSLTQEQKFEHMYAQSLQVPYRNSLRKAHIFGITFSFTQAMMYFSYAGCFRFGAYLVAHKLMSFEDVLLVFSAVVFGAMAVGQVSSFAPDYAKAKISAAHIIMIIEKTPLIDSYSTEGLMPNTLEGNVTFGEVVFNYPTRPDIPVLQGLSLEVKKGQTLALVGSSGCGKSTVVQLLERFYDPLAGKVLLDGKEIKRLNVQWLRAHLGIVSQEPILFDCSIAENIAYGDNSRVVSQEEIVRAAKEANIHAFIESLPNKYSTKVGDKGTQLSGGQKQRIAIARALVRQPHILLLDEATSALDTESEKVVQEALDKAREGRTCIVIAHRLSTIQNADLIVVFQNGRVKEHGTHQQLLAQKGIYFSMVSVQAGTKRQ

## CC(=O)O[C@@]12CO[C@@H]1C[C@H](O)[C@@]1(C)C(=O)[C@H](O)C3=C(C)[C@@H](OC(=O)[C@H](O)[C@@H](NC(=O)OC(C)(C)C)c4ccccc4)C[C@@](O)([C@@H](OC(=O)c4ccccc4)[C@H]21)C3(C)C [docetaxel]
OATP1B3 [1]
  Vmax: 480 ± 90 pmol/mg/min
MDR1
  apical docetaxel accumulation (basal-to-apical): significantly higher
OATP1B1/MDR1; 0.5h up to 3h, 0.1 μM
  docetaxel transported into the apical compartment: significantly higher
OATP1B1/MDR1; all time points
  intracellular docetaxel: significantly lower
OATP1B3/MDR1; 0.5h up to 3h, 0.1 μM
  docetaxel transported into the apical compartment: significantly higher
OATP1B3/MDR1; all time points
  intracellular docetaxel: significantly lower
[2]; CYP3A4*1B and CYP3A5*1A alleles (CYP3A4/5*2 haplotype)
  increase in docetaxel clearance: 64%
[2]; humans
  docetaxel excreted in bile: ~ 75%
  docetaxel excreted in urine: ~ 5%
[2]; patients receiving the same treatment regimens
  difference in drug clearance amongst patients: up to 10 fold
[2]; with a 50% decrease in docetaxel clearance
  increase in odds of developing grade 4 neutropenia: more than 4 fold
[3]
  AUC of docetaxel in knockout versus wild-type mice: similar
OATP1B3 [4]
  Km: 14 ± 6.5 µM
[5]; 1 mg/kg intravenous, p < 0.05
  plasma clearance in Slco1b2−/− mice, lower than wild-type mice: 83%
[5]; Slco1b2−/− mice, 1 mg/kg intravenous
  mean plasma clearance ± S.D.: 1.22 ± 0.583 mL/min/kg
[5]; Slco1b2−/− versus wild-type mice, 30 min after 1 mg/kg intravenous
  docetaxel liver concentrations: no significant difference
[5]; wild-type mice, 1 mg/kg intravenous
  mean plasma clearance ± S.D.: 473 ± 124 mL/h

B1: Oatp1b2 (Rattus norvegicus) (protein)
chain: MDHTQQSRKAAEAQPSRSKQTRFCDGFKLFLAALSFSYICKALGGVVMKSSITQIERRFDIPSSISGLIDGGFEIGNLLVIVFVSYFGSKLHRPKLIGIGCFIMGIGSILTALPHFFMGYYKYAKENDIGSLGNSTLTCFINQMTSPTGPSPEIVEKGCEKGLKSHMWIYVLMGNMLRGIGETPIVPLGISYLDDFAKEGHTSMHLGTLHTIAMIGPILGFIMSSVFAKIYVDVGYVDLNSVRITPNDARWVGAWWLSFIVNGLLCITSSIPFFFLPKIPKRSQEERKNSVSLHAPKTDEEKKHMTNLTKQEEQDPSNMTGFLRSLRSILTNEIYVIFLILTLLQVSGFIGSFTYLFKFIEQQFGRTASQANFLLGIITIPTMATAMFLGGYIVKKFKLTSVGIAKFVFFTSSVAYAFQFLYFPLLCENKPFAGLTLTYDGMNPVDSHIDVPLSYCNSDCSCDKNQWEPICGENGVTYISPCLAGCKSFRGDKKPNNTEFYDCSCISNSGNNSAHLGECPRYKCKTNYYFYIILQVTVSFFTAMGSPSLILILMKSVQPELKSLAMGFHSLIIRALGGILAPIYYGAFIDRTCIKWSVTSCGKRGACRLYNSRLFGFSYLGLNLALKTPPLFLYVVLIYFTKRKYKRNDNKTLENGRQFTDEGNPDSVNKNGYYCVPYDEQSNETPL
[6]
  Km: 20.8 ± 7.4 µM
  Vmax: 1548 ± 186 pmol/mg/min
